Data as given in patent US20200085776A1, “Methods of Reducing C-Reactive Protein and/or Treating Cardiovascular Disease” (CARDAX, INC., priority 2018, published 2020).

System: C-reactive protein (CRP)
Assay: CRP (hs-CRP) in blood, CHASE clinical study
Assay type: in vivo, human
Conditions: Group Z 48 mg BID; for CRP Max / CRP Mean (SD) / CRP Median / CRP Min: V6 Week 12
Text: This is a two-part study comprising Part I and Part II. Following screening, Part I consists of a randomized, double-blind, placebo controlled dosing period of up to 12 weeks. The study shall be conducted at one or more study sites in Hawaii. Approximately 360 subjects qualified after completion of screening procedures shall be randomized in a 1:1:1 ratio to one of three treatment groups, per Table 1.
The Part I 12-week double-blind dosing period commences with V2, including randomization and first dose of study product, and continues with study visits at Week 1-2 (V3), Week 4 (V4), Week 8 (V5), and Week 12 (V6). V6 procedures will conclude Part I.
Blood shall be obtained at each visit for CRP. The screening specimen shall be processed at the local lab and reported to the study staff for eligibility determination; CRP samples at V7 and V8 may also be processed locally and reported directly to study staff. Samples for CRP from V2 through V6 may be batched, processed, and reported as specified in the Laboratory Manual.
At each these visits, blood was obtained for measurement of CRP, among other parameters. Table 7A provides a summary of the CRP measurements (mg/L) at each visit and Table 7B provides a summary of the differences of CRP levels between V2 and V6.

[1] = subjects with DM2, hypertension and hyperlipidemia but not CAD
[2] = subjects with Diabetes Mellitus Type II
[3] = subjects with baseline level greater than 2.0
[4] = baseline to Week 12, all subjects
[5] = baseline to Week 12, subjects not taking a hypertension agent
[6] = baseline to Week 12, subjects not taking any cardiac therapeutic agent
[7] = baseline to Week 12, subjects not taking statins
[8] = baseline to Week 12, subjects taking an anti-diabetic agent
[9] = baseline to Week 12, subjects with CAD
[10] = baseline to Week 12, subjects with DM2, hypertension and hyperlipidemia but not CAD
[11] = baseline to Week 12, subjects with Diabetes Mellitus Type II
[12] = baseline to Week 12, subjects with baseline level greater than 2.0
[13] = baseline to Week 12, subjects with hyperlipidemia

For `CC1=C(/C=C/C(C)=C/C=C/C(C)=C/C=C/C=C(C)/C=C/C=C(C)/C=C/C2=C(C)C(=O)C(O)CC2(C)C)C(C)(C)CC(O)C1=O` (stereo not drawn) [Astaxanthin, astaxanthin], the “CRP Max” value [1] was 6.14 mg/L, the “CRP Mean (SD)” value [1] was 3.38 (1.57) mg/L and the “CRP Median” value [1] was 2.58 mg/L. For the same molecule, the “CRP Min” value [1] was 2.48 mg/L, the “CRP Max” value [2] was 8.84 mg/L and the “CRP Mean (SD)” value [2] was 3.77 (2.70) mg/L. For the same molecule, the “CRP Median” value [2] was 2.56 mg/L, the “CRP Min” value [2] was 0.61 mg/L and the “CRP Max” value [3] was 8.84 mg/L. For the same molecule, the “CRP Mean (SD)” value [3] was 3.88 (2.42) mg/L, the “CRP Median” value [3] was 2.89 mg/L and the “CRP Min” value [3] was 0.61 mg/L. For the same molecule, the “CRP Max” value (subjects with hyperlipidemia) was 6.14 mg/L, the “CRP Mean (SD)” value (subjects with hyperlipidemia) was 2.54 (1.29) mg/L and the “CRP Median” value (subjects with hyperlipidemia) was 2.31 mg/L. The “CRP Min” value (subjects with hyperlipidemia) was 0.61 mg/L, the “CRP V2 to V6 % Change Max” value [4] was 81.89% and the “CRP V2 to V6 % Change Mean” value [4] was −8.48%. For the same molecule, the “CRP V2 to V6 % Change Median” value [4] was −27.9%, the “CRP V2 to V6 % Change Min” value [4] was −90.9% and the “CRP V2 to V6 Change Max” value [4] was 2.58 mg/L. The “CRP V2 to V6 Change Mean” value [4] was -0.87 mg/L, the “CRP V2 to V6 Change Median” value [4] was -0.65 mg/L and the “CRP V2 to V6 Change Min” value [4] was -6.07 mg/L. The “CRP V2 to V6 % Change Max” value [5] was −4.25%, the “CRP V2 to V6 % Change Mean (SD)” value [5] was −30.8 (26.09) % and the “CRP V2 to V6 % Change Median” value [5] was −31.8%. The “CRP V2 to V6 % Change Min” value [5] was −56.4%, the “CRP V2 to V6 Change Max” value [5] was -0.11 mg/L and the “CRP V2 to V6 Change Mean (SD)” value [5] was −1.58 (1.32) mg/L. For the same molecule, the “CRP V2 to V6 Change Median” value [5] was -2.00 mg/L, the “CRP V2 to V6 Change Min” value [5] was -2.64 mg/L and the “CRP V2 to V6 % Change Max” value [6] was 71.27%. For the same molecule, the “CRP V2 to V6 % Change Mean (SD)” value [6] was −23.7 (41.82) %, the “CRP V2 to V6 % Change Median” value [6] was −31.5% and the “CRP V2 to V6 % Change Min” value [6] was −90.9%. The “CRP V2 to V6 Change Max” value [6] was 1.29 mg/L, the “CRP V2 to V6 Change Mean (SD)” value [6] was −1.42 (2.01) mg/L and the “CRP V2 to V6 Change Median” value [6] was -1.24 mg/L. For the same molecule, the “CRP V2 to V6 Change Min” value [6] was -6.07 mg/L, the “CRP V2 to V6 % Change Max” value [7] was 19.13% and the “CRP V2 to V6 % Change Mean (SD)” value [7] was −14.9 (28.11) %. For the same molecule, the “CRP V2 to V6 % Change Median” value [7] was −17.6%, the “CRP V2 to V6 % Change Min” value [7] was −56.4% and the “CRP V2 to V6 Change Max” value [7] was 0.80 mg/L. The “CRP V2 to V6 Change Mean (SD)” value [7] was −0.81 (1.42) mg/L, the “CRP V2 to V6 Change Median” value [7] was -0.71 mg/L and the “CRP V2 to V6 Change Min” value [7] was -2.64 mg/L. For the same molecule, the “CRP V2 to V6 % Change** Max” value [8] was 81.89%, the “CRP V2 to V6 % Change** Mean (SD)” value [8] was −16.9 (49.24) % and the “CRP V2 to V6 % Change** Median” value [8] was −30.7%. For the same molecule, the “CRP V2 to V6 % Change** Min” value [8] was −90.9%, the “CRP V2 to V6 Change Max” value [8] was 2.58 mg/L and the “CRP V2 to V6 Change Mean (SD)” value [8] was −1.18 (2.36) mg/L. The “CRP V2 to V6 Change Median” value [8] was -1.14 mg/L, the “CRP V2 to V6 Change Min” value [8] was -6.07 mg/L and the “CRP V2 to V6 % Change Max” value [9] was 81.89%. The “CRP V2 to V6 % Change Mean (SD)” value [9] was −28.8 (65.35) %, the “CRP V2 to V6 % Change Median” value [9] was −39.7% and the “CRP V2 to V6 % Change Min” value [9] was −90.9%. The “CRP V2 to V6 Change Max” value [9] was 1.04 mg/L, the “CRP V2 to V6 Change Mean (SD)” value [9] was −1.91 (2.67) mg/L and the “CRP V2 to V6 Change Median” value [9] was -1.24 mg/L. The “CRP V2 to V6 Change Min” value [9] was -6.07 mg/L, the “CRP V2 to V6 % Change Max” value [10] was −4.25% and the “CRP V2 to V6 % Change Mean (SD)” value [10] was −32.6 (18.99) %. The “CRP V2 to V6 % Change Median” value [10] was −30.7%, the “CRP V2 to V6 % Change Min” value [10] was −50.4% and the “CRP V2 to V6 Change Max” value [10] was -0.11 mg/L. For the same molecule, the “CRP V2 to V6 Change Mean (SD)” value [10] was −1.87 (1.24) mg/L, the “CRP V2 to V6 Change Median” value [10] was -2.37 mg/L and the “CRP V2 to V6 Change Min” value [10] was -3.24 mg/L. The “CRP V2 to V6 % Change Max” value [11] was 81.89%, the “CRP V2 to V6 % Change Mean (SD)” value [11] was −14.7 (47.59) % and the “CRP V2 to V6 % Change Median” value [11] was −29.3%. For the same molecule, the “CRP V2 to V6 % Change Min” value [11] was −90.9%, the “CRP V2 to V6 Change Max” value [11] was 2.58 mg/L and the “CRP V2 to V6 Change Mean (SD)” value [11] was −1.01 (2.32) mg/L. The “CRP V2 to V6 Change Median” value [11] was -0.90 mg/L, the “CRP V2 to V6 Change Min” value [11] was -6.07 mg/L and the “CRP V2 to V6 % Change Max” value [12] was 48.77%. For the same molecule, the “CRP V2 to V6 % Change Mean (SD)” value [12] was −24.8 (35.03) %, the “CRP V2 to V6 % Change Median” value [12] was −31.1% and the “CRP V2 to V6 % Change Min” value [12] was −90.9%. For the same molecule, the “CRP V2 to V6 Change Max” value [12] was 2.58 mg/L, the “CRP V2 to V6 Change Mean (SD)” value [12] was −1.37 (2.11) mg/L and the “CRP V2 to V6 Change Median” value [12] was -1.54 mg/L. For the same molecule, the “CRP V2 to V6 Change Min” value [12] was -6.07 mg/L, the “CRP V2 to V6 % Change Max” value [13] was 81.89% and the “CRP V2 to V6 % Change Mean (SD)” value [13] was −13.6 (49.58) %. For the same molecule, the “CRP V2 to V6 % Change Median” value [13] was −30.7%, the “CRP V2 to V6 % Change Min” value [13] was −90.9% and the “CRP V2 to V6 Change Max” value [13] was 1.29 mg/L. The “CRP V2 to V6 Change Mean (SD)” value [13] was −1.24 (1.95) mg/L, the “CRP V2 to V6 Change Median” value [13] was -1.14 mg/L and the “CRP V2 to V6 Change Min” value [13] was -6.07 mg/L.
